Patent publication US20040259806A1 (priority 2001, published 2004)

How the values were obtained:
tuberculosis [1] = assay: SCV-07 in patients with destructive lung tuberculosis, 20 treated versus 15 control (Example 3); format: in vivo, human
Method: Patients with destructive lung tuberculosis, untreated previously or after inadequate antituberculosis therapy were treated. All patients received antituberculosis therapy consisting of intravenous isoniazid and four to five other drugs and the condition of each patient was examined daily. Major diagnostic criteria included physical examination, chest X-ray, sputum bacterioscopy and culture, broncho alveolar lavage examination. Also included were blood counts performed in all patients prior to SCV-07 therapy and then once per week. Blood biochemical tests including blood fibrinogen, β-lipoproteins, urea, creatinine, C-reactive protein levels, activity of alanine and asparagine transaminases were performed once per month and more frequently if needed. Sputum cultures were taken prior to therapy and one and three months after SCV-07 therapy, and serologic assays including indirect hemaglutination tests.
Bilateral lung injury was found in 11 patients. […] In all cases, the pathological process was destructive. […] Immature cavities were diagnosed in 3 cases. Multiple cavities, X-ray markers and exudative inflammation predominated in all patients.
Females slightly predominated the experimental group (55%). Patients ranged in age from 20 to 40 years of age. All patients had symptoms of toxemia, including 4 patients with severe symptoms.
Immunological studies included counting the percentage of peripheral blood lymphocyte subsets such as CD3+, CD4+, CD8+, CD20+, CD25+ and CD95+ using monoclonal antibodies. The CD4/CD8 index was calculated as well. Elevation of CD3+ and CD4+ cell levels were apparent in 7 out of 14 patients immediately after SCV-07 therapy.
Phytohemagglutinin (PHA) and purified protein derivate (PPD)-induced lymphocytes blasttransformation were also investigated.

tuberculosis [2] = assay: SCV-07 therapy with continued traditional antituberculosis therapy in a patient (Example 2); format: in vivo, human
Description: A patient was admitted to the hospital with infiltrative tuberculosis, destructive phase in the upper lobe and 6th segment of the right lung and 4-5th segments of the left lung. Prior to SCV-07 therapy, symptoms of bacterial intoxication, dyspnea and rales above the damaged lobes were present. […] Large foci of lung destruction surrounded by perifocal inflammation were found in the lingual lobe of the left lung. […] During immunological response assays, a decrease of CD4+ and CD8+ subsets and low lymphocyte blasttransformation responses with PHA and PPD were detected.
After two months of traditional therapy a small improvement in the patient's condition was seen; however, the reoentgenological picture was without significant change and immune responses remained inhibited.
SCV-07 was injected intramuscularly at 0.1 mg, once per day, for 5 days with continued traditional antituberculosis therapy (isoniazid at 600 mg/day intravenously, pyrazinamid at 1500 mg/day per so, rifampicin at 450 mg/day per os, kanamycin at 1000 mg/day intramuscularly). The clinical improvement was significant. Sputum culture tests became negative, cavities closed and infiltrative foci resolved. […] A normal range is approximately 26-40%. […] Finally, the blasttransformation response with PHA increased from 29% to 40%. A normal level is approximately 50%.

peritoneal macrophages = assay: Phagocytosis and killing of Saccharomyces cerevisiae by peritoneal macrophages of treated infected mice; format: in vivo
Method: In order to study phagocytosis, peritoneal macrophages were plated at a concentration of 10^6 cells per Petri dish and media including 10^7 Saccharomyces cerevisiae cells, opsonized by mice serum was added. Results were evaluated using the Mann-Whitney test. Phagocytic activity was calculated after determination of percentage of macrophages involved in phagocytes. The phagocytic index was determined by calculating the average number of yeast phagocytosed per one cell. Killing activity was resolved by the number of yeast digested by macrophages after 1.5 h of incubation. Finally, the killing index was determined as follows: [formula]

[3] = SCV-07 im 0.1 mg once per day for 5 days with continued traditional therapy

N[C@H](CCC(=O)N[C@@H](Cc1c[nH]c2ccccc12)C(=O)O)C(=O)O [SCV-07, γ-D-glutamyl-L-tryptophan]
IL-2 production after stimulation with the mitogens PHA and PPD (tuberculosis [1]; SCV-07 treated patients): greatly increased
Cavity closure, patients (tuberculosis [1]; after 3 months of observation, 13.3% in the control group): 25%
Negative sputum culture tests, patients (tuberculosis [1]; after 3 months, 33.3% in the control group): 65%
Negative sputum culture tests, patients (tuberculosis [1]; after a month of observation, 13.3% in the control group): 30%
Serum bilirubin, creatinine, urea, alanine and asparagine transaminase (tuberculosis [1]; during SCV-07 therapy): stabilized
Hematological signs of tuberculosis activity including white blood cell counts and ESR (tuberculosis [1]; experimental group): mostly diminished
body temperature (tuberculosis [1]; experimental group): decreased in all cases
Moist rates resolved (tuberculosis [1]; experimental group (20 patients)): 16 patients
T-cell blasttransformation responses (PHA, PPD) (tuberculosis [1]; experimental group compared with control group): markedly increased
chest X-ray and tomogram (tuberculosis [1]; following two months of SCV-07 therapy): resolution of the infiltrate-like shadow
CD4+/CD8+ ratio (tuberculosis [1]; immediately after SCV-07 therapy): increased
Serum biochemical inflammation markers such as fibrinogen, β-lipoprotein, CRP (tuberculosis [1]; in one month): decreased
Elevation of CD3+ and CD4+ cell levels, patients (tuberculosis [1]; out of 14 patients, immediately after SCV-07 therapy): 7 patients
Toxemia symptoms substantially resolved (tuberculosis [1]; within a month, experimental group (20 patients), with antituberculosis therapy): half of the patients
Immunological responses (tuberculosis [2]; [3]): close to normal
Sputum culture tests (tuberculosis [2]; [3]): negative
cavities (tuberculosis [2]; [3]): closed
infiltrative foci (tuberculosis [2]; [3]): resolved
clinical improvement (tuberculosis [2]; SCV-07 intramuscularly 0.1 mg once per day for 5 days with continued traditional therapy): significant
CD3+ lymphocytes (tuberculosis [2]; post SCV-07, increased from 1.011×10^9/l): 1.441e+09 L⁻¹
CD8+ numbers (tuberculosis [2]; post SCV-07, increased from 12%, normal range approximately 26-40%): 21%
blasttransformation response with PHA (tuberculosis [2]; post SCV-07, increased from 29%, normal level approximately 50%): 40%
Lymphocyte functional abilities (tuberculosis [2]; post SCV-07 treatment): markedly elevated
macrophage killing (peritoneal macrophages; 24 days after treatment, Groups 6 and 7 (1.0 ìg/kg, 10 injections and 0.1 ìg/kg ip)): significantly improved
phagocytic activity (peritoneal macrophages; after 4 days, Group 7 (SCV-07 0.1 ìg/kg ip) compared to Group 3 (isoniazid control), p≦0.05, 64.2% in uninfected mice): 38.8%
phagocytic index (peritoneal macrophages; after 4 days, SCV-07 treatment): normalized
killing (peritoneal macrophages; after 4 days, SCV-07 versus control, p≦0.05): 244.4
killing and the killing index (peritoneal macrophages; after 17 days, Group 6 (1.0 ìg/kg ip, 10 injections)): significantly increased
phagocytic activity (peritoneal macrophages; after 17 days, Group 6 (1.0 ìg/kg ip, 10 injections) versus Group 3 (isoniazid control)): 60.4%
phagocytic index (peritoneal macrophages; after 17 days, Group 6 (1.0 ìg/kg ip, 10 injections) versus Group 3, p=0.05): 6.88 U
killing (peritoneal macrophages; ten days after therapy, Group 5 (1 ìg/kg, ip) compared to the control): significantly increased
ingestion and killing (peritoneal macrophages; ten days after therapy, Groups 8 and 9 (0.01 ìg/kg ip and 1 ìg/kg po)): tendency toward decreased
